In patent US11730746B2, “17beta-heterocyclyl-digitalis like compounds for the treatment of heart failure” (priority 2018, dated 2023):
Like-named read-outs stand apart in the source and are kept apart here. Marks after values point to notes of the source that are not given here.

Legend:
dog renal Na,K-ATPase = target: T1, dog renal Na,K-ATPase (Canis lupus familiaris, UniProt P50997); experiment: Inhibition of dog renal Na,K-ATPase activity (32P-ATP release); assay type: biochemical
T1 construct: incubated with 0.3 μg of purified dog kidney enzyme; from tissue; host or cells: dog kidney outer medulla
Protocol: Kidneys were sliced and the outer medulla was dissected, pooled and suspended (1 g/10 ml) in a sucrose-histidine solution, containing 250 mM sucrose, 30 mM histidine and 5 mM EDTA, pH 7.2 and homogenized. […] The pellet was suspended in the sucrose-histidine buffer and incubated for 20 min with a sodium-dodecyl-sulphate (SDS) solution dissolved in a gradient buffer, containing 25 mM imidazole and 1 mM EDTA, pH 7.5. […] The pellet was suspended in the gradient buffer.
Increasing concentrations of the standard ouabain, or tested compound, were incubated with 0.3 μg of purified dog kidney enzyme for 10 min at 37° C. in 120 μl final volume of a medium, containing 140 mM NaCl, 3 mM MgCl2, 50 mM Hepes-Tris, 3 mM ATP, pH 7.5. […] The inhibitory activity was expressed as percent of the control samples carried out in the absence of ouabain or tested compound.

[1] = tested on: guinea pig isolated cardiomyocytes; experiment: SR Ca2+ uptake function (loading protocol) in isolated ventricular cardiomyocytes; assay type: cell-based; details: 100 nM
Protocol: The compounds were characterized for their effect on (i) SR Ca^2+ uptake function, (ii) action potential (AP) in myocytes freshly dissociated from guinea-pig ventricles by retrograde coronary perfusion with enzymatic solution (Rocchetti M et al. J Pharmacol Exper Therap 2005; 313(1):207-215).
Drug effects on SR Ca^2+ uptake rate were evaluated with an SR “loading protocol” specifically devised to rule out the contribution of the Na/Ca exchanger (NCX) and to assess the uptake rate starting at low levels of SR Ca^2+ loading. Under voltage-clamp conditions, intracellular Ca^2+ concentration was dynamically measured by epifluorescence (Fluo4-AM). Membrane current, whose time-dependent component mainly reflected ICaL, was simultaneously recorded. The SR loading protocol consisted in emptying the SR (by a brief caffeine pulse) and then progressively refilling it by voltage steps activating Ca^2+ influx through the sarcolemmal Ca^2+ channel (ICaL). NCX was blocked by omission of Na^+ from intracellular and extracellular solutions. The procedure is in agreement with published methods, with minor modifications (Rocchetti M et al. J Pharmacol Exper Therap 2005; 313(1):207-215).
Drug effects on SR Ca^2+ uptake were analysed by considering multiple parameters: 1) the rate at which Ca^2+ transient (CaT) amplitude increased during the loading protocol, which reflects the rate at which the SR refilled and 2) the time constant of cytosolic Ca^2+ decay (Tdecay) within each pulse, reflecting net Ca^2+ transport rate (by SERCA2a) across the SR membrane (a decrease in Tdecay corresponds to enhanced SR Ca^2+ uptake).

SERCA2a = target: T2, SERCA2a (Canis lupus familiaris, UniProt O46674); experiment: SERCA2a ATPase activity in heart-derived SR microsomes from normal dog; assay type: biochemical; details: for Vmax (SERCA2a ATPase activity): mean ± SD
T2 construct: pre-incubated with 2 μg of microsomes; from tissue; host or cells: dog heart left ventricle, SR microsomes
Protocol: Left ventricle tissues were dissected, homogenized in 4 volumes of 10 mM NaHCO3, pH 7, 1 mM PMSF, 10 μg/ml Aprotinin and Leupeptin and centrifuged at 12,000 g for 15 minutes, as published (Nediani C. et al. J Biol Chem. 1996; 271:19066-73). Supernatants were filtered and centrifuged at 100,000 g for 30 min. Contractile proteins were extracted by suspending the pellets with 0.6 M KCl, 30 mM Histidine, pH 7 and further centrifugation at 100,000 g for 30 min. Final pellets were reconstituted with 0.3 M Sucrose, 30 mM Histidine, pH 7.
SERCA2a activity was measured “in vitro” as ^32P-ATP hydrolysis at different Ca^2+ concentrations (100-4000 nM) in the absence and presence of the tested compounds, as described (Micheletti R. et al. Am J Card 2007; 99:24A-32A). Increasing concentrations of each compound (from 1 to 100 nM) were pre-incubated with 2 μg of microsomes for 5 min at 4° C. in 80 μl of a solution containing 100 mM KCl, 5 mM MgCl2, 1 μM A23187, 20 mM Tris, pH 7.5. Then, 20 μl of 5 mM Tris-ATP containing 50 nCi of ^32P-ATP (3-10 Ci/mmol, Perkin Elmer) were added. The ATP hydrolysis was continued for 15 min at 37° C. and the reaction was stopped by acidification with 100 μl of 20% v/v ice-cold perchloric acid. ^32P was separated by centrifugation with activated charcoal (Norit A, SERVA) and the radioactivity was measured. SERCA2a-dependent activity was identified as the portion of total hydrolytic activity inhibited by 10 μM cyclopiazonic acid (Seidler N W. et al. J Biol Chem. 1989; 264:17816-23).
Dose-response curves were fitted by using a sigmoidal curve fitting software and the maximal velocity (Vmax) activity and the Kd Ca^2+ were calculated (Synergy Software KaleidaGraph 3.6).

guinea pig = experiment: Haemodynamics: inotropic and lethal dose in guinea pig; assay type: in vivo; details: i.v. infusion 0.3 mg/kg/min
Protocol: Guinea-pigs (400-450 g) were anaesthetized with urethane (1.5 g/kg ip). A microtip pressure transducer was introduced into the left ventricle through the right carotid artery to measure ventricular pressure (LVP); the transducer was coupled with a transducer amplifier. Recordings were fed to a polygraph and analyzed. A polythene cannula was inserted into a jugular vein for drug infusion. After a stabilization period, the test substance was injected at the rate of 0.16 ml/min for 90 min (Micheletti R et al. J Pharmacol Exp Ther 2002; 303:592-600).
The following parameters were obtained: heart rate (HR), left ventricular pressure (LVP), maximal velocity of pressure rise (+dP/dtmax) and decay (−dP/dtmax), ECG. For inotropy, the time elapsed until +dP/dtmax increased by 80% was identified in order to determine the ED80 (dose increasing basal +dP/dtmax by 80%). The time to the maximum increase in +dP/dtmax was also identified to determine the maximum effective dose, EDmax. Lusitropy was characterized by the dose inducing the maximum decrease in −dP/dtmax, (EDmax). As indexes of toxicity, the dose administered until the onset of arrhythmias and the dose inducing death (LD) were calculated. The safety ratio for the tested compound was also calculated as the ratio between LD and ED80.

[2] = purified dog kidney enzyme, read-out: IC50, inhibition of dog renal Na,K-ATPase

T2 sequence (O46674 whole entry): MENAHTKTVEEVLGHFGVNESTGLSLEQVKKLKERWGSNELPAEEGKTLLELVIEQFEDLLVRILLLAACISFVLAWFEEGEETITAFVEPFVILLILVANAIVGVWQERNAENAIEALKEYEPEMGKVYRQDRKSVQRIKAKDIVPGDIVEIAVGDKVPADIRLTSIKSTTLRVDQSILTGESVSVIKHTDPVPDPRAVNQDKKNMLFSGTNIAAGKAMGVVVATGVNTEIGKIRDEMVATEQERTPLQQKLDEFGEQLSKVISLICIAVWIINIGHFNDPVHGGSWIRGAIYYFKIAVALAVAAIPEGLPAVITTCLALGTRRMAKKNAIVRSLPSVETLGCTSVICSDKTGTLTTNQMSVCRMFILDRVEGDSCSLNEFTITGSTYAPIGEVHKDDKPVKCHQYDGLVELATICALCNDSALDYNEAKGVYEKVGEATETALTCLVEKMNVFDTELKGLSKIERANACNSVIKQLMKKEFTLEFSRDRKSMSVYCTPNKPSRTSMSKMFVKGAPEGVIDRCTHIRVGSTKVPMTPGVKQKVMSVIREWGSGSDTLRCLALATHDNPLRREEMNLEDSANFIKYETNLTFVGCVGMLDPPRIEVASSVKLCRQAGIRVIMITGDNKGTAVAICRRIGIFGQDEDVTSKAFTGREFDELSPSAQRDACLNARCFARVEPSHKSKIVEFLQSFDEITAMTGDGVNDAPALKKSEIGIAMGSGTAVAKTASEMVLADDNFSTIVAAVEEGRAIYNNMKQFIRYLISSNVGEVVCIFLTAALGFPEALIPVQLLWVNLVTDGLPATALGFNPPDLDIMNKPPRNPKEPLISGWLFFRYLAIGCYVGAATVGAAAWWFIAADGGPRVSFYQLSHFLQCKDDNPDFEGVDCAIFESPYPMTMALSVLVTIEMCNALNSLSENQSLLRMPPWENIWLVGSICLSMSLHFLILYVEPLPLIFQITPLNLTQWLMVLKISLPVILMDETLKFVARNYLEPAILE

| Structure (SMILES) | IC50 (dog renal Na,K-ATPase) [µM] | % increase vs Control (SERCA2a Vmax) (SERCA2a; compound 1 nM) | Vmax (SERCA2a ATPase activity) (SERCA2a; compound 1 nM) | % increase vs Control (SERCA2a Vmax) (SERCA2a; compound 10 nM) | Vmax (SERCA2a ATPase activity) (SERCA2a; compound 10 nM) | IC50 (dog renal Na,K-ATPase; [2]) [µM] | % increase vs Control (SERCA2a Vmax) (SERCA2a; compound 100 nM) [%*] | Vmax (SERCA2a ATPase activity) (SERCA2a; compound 100 nM) | further results |
| --- | --- | --- | --- | --- | --- | --- | --- | --- | --- |
| C[C@]12CC[C@H](O)C[C@H]1CCC1C2CC[C@]2(C)[C@@H](c3csc(N=C(N)N)n3)CC[C@]12O (stereo partly drawn) [CVie 102, 3β-hydroxy-5β-10β-methyl-13β-methyl-14β-hydroxy-17β-(2-guanidino-thiazol-4-yl)androstane] | 1.7 | 25%* | 2.949 ± 0.321 (n = 6) μmol/min/mg prot | 13%* | 2.660 ± 0.232 (n = 12) μmol/min/mg prot |  |  |  | rate of Ca2+ transient (CaT) increment during SR reloading ([1]; FIG. 1A, 1C): increased; time constant of cytosolic Ca2+ decay within each pulse (τdecay) ([1]; FIG. 1B, 1D): reduced; Dead/treated number (guinea pig): 11/11; ED80 (guinea pig): 3.8 mg/kg; Lethal dose (guinea pig): 12.57 mg/kg; E max % increase in dP/dtmax (guinea pig; 90 min): 138.3%; ED max (guinea pig; cumulative dose): 8.6 mg/kg; LD/ED80 (guinea pig; safety ratio): 5.42 |
| C[C@]12[C@H](O)CC3C(CC[C@@H]4C[C@@H](O)CC[C@]34C)[C@@]1(O)CC[C@@H]2c1csc(N=C(N)N)n1 (stereo partly drawn) [CVie 105, 3β-hydroxy-5β-10β-methyl-12β-hydroxy-13β-methyl-14β-hydroxy-17β-(2-guanidino-thiazol-4-yl)androstane] | 0.53 |  |  |  |  |  |  |  |  |
| C[C@]12CC[C@H](O)C[C@H]1CCC1C2CC[C@]2(C)[C@@H](c3cn(CCCN)cn3)CC[C@]12O (stereo partly drawn) [CVie 106, 3β-hydroxy-5β-10β-methyl-13β-methyl-14β-hydroxy-17β-(N-(3-aminopropyl)-imidazol-4-yl)androstane] |  | 22% * | 3.113 ± 0.157 (n = 3) μmol/min/mg prot | 15% | 2.935 ± 0.403 (n = 3) μmol/min/mg prot | 10 |  |  |  |
| C[C@]12CC[C@H](O)C[C@H]1CCC1C2CC[C@]2(C)[C@@H](/C=C/c3cc(CN)on3)CC[C@]12O (some centres unmarked) [CVie 110] | 0.33 | 19% | 2.924 ± 0.549 (n = 3) μmol/min/mg prot | 18%* | 2.903 ± 0.188 (n = 3) μmol/min/mg prot |  |  |  |  |
| C[C@]12CC[C@H](O)C[C@H]1CCC1C2CC[C@]2(C)[C@@H](c3cc(CCCN)on3)CC[C@]12O (stereo partly drawn) [CVie 107, 3β-hydroxy-5β-10β-methyl-13β-methyl-14β-hydroxy-17β-((5-(3-aminopropyl)-isoxazol-3-yl))androstane] |  |  |  | 7% | 2.508 ± 0.339 (n = 3) μmol/min/mg prot | 0.15 | 17 | 2.751 ± 0.171 (n = 3) μmol/min/mg prot |  |
| C[C@]12CC[C@H](O)C[C@H]1CCC1C2CC[C@]2(C)[C@@H](CCc3cc(CCCN)on3)CC[C@]12O (stereo partly drawn) [CVie 108, 3β-hydroxy-5β-10β-methyl-13β-methyl-14β-hydroxy-17β-((5-(3-aminopropyl)-isoxazol-3-yl)-ethyl)androstane] |  | 15% | 2.94 ± 0.306 (n = 3) μmol/min/mg prot | 16%* | 2.980 ± 0.441 (n = 4) μmol/min/mg prot | 3.3 |  |  |  |
| C[C@]12CC[C@H](O)C[C@H]1CC[C@@H]1[C@@H]2C[C@@H](O)[C@]2(C)[C@@H](C3=CC(=O)OC3)CC[C@]12O [DIGOXIGENIN, Digoxigenin, reference compound] | 0.23 |  |  |  |  |  |  |  |  |
| C[C@]12CC[C@H](O)C[C@H]1CCC1C2CC[C@]2(C)[C@@H](c3cc[nH]n3)CC[C@]12O (stereo partly drawn) [CVie 103, 3β-hydroxy-5β-10β-methyl-13β-methyl-14β-hydroxy-17β-(pyrazol-3-yl)androstane] | 4 |  |  | 11%* | 2.569 ± 0.278 (n = 7) μmol/min/mg prot |  | 16 | 2.688 ± 0.285 (n = 7) μmol/min/mg prot |  |
| C[C@]12CC[C@H](O)C[C@H]1CCC1C2CC[C@]2(C)[C@@H](CCc3cc(CCN)on3)CC[C@]12O (some centres unmarked) [CVie 109] |  |  |  | 14% | 2.859 ± 0.504 (n = 4) μmol/min/mg prot | 1 | 15 | 2.889 ± 0.305 (n = 4) μmol/min/mg prot |  |
| C[C@]12[C@H](O)CC3C(CC[C@@H]4C[C@@H](O)CC[C@]34C)[C@@]1(O)CC[C@@H]2c1c[nH]cn1 (stereo partly drawn) [CVie 104, 3β-hydroxy-5β-10β-methyl-12β-hydroxy-13β-methyl-14β-hydroxy-17β-(imidazol-4-yl)androstane] |  | 11%* | 1.437 ± 0.158 (n = 4) μmol/min/mg prot | 20%* | 1.551 ± 0.275 (n = 4) μmol/min/mg prot | 1.61 |  |  |  |
